Assay [1] relates to tryptase-induced mechanical hypersensitivity. The experiment in a line: Rat tryptase-induced mechanical hypersensitivity model. The note with it: given 30 minutes post tryptase challenge. The format is in vivo, Sprague Dawley rats. How it is done: Male Sprague Dawley rats and BALB/c mice were housed in groups in a temperature controlled room and were acclimatized in the animal facility for at least three days prior to use. Experiments were performed during the light phase of the cycle. Animals have food and water ad libitum.
Example 64: Rat Tryptase-Induced Mechanical Hypersensitivity Model
Peripheral sensitization was induced by intra-dermal administration of 500 ng of tryptase in a volume of 10 ul PBS under isoflurane anesthesia. Rats were then placed on a wire mesh grid in separate compartments and allowed to acclimatize before testing. Mechanical hypersensitivity was assessed 30 min after tryptase injection using calibrated von Frey filaments applied perpendicular to the plantar surface of the affected paw using the up-and-down method. Test compounds or vehicle (0.5% MC/0.1% SDS) were systemically administered at doses indicated in a volume of 5 mL/kg 3-18 h before the tryptase challenge (Table 11) or 30 minutes post tryptase challenge (Table 12).
Data are expressed as the mean % effect. Statistical significance was assessed using t-test for comparison between naive and inflamed rats, and one-way ANOVA followed by post-hoc comparison test for overall drug effectiveness. A difference between groups is considered significant with a p value of <0.05. *, p<0.05; **, p<0.01; ***, p<0.001 vs. vehicle.

For assay [2], the target named is T1, PAR2 (HT-29 cells, trypsin activation) (Homo sapiens, UniProt P55085).
T1 construct: host or cells: HT-29 cells
T1 sequence (P55085 26-397): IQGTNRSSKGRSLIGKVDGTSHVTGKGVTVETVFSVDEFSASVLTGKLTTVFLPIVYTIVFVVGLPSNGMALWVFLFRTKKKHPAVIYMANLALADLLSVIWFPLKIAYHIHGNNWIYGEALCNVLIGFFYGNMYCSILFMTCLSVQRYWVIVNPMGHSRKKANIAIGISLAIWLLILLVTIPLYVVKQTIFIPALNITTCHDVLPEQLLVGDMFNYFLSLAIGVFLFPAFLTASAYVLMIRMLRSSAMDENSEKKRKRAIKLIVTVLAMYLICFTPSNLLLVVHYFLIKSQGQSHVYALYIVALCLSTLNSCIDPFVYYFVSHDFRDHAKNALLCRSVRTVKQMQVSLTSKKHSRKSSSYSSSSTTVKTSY
The experiment in a line: Ca FLIPR TETRA assay, ANTAGONIST mode, stimulation with 3.1 U/mL trypsin. As to conditions: HT-29 cells, antagonist mode, stimulation with 3.1 U/mL trypsin. The format is cell-based. In outline:
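Antagonist-mode FLIPR Tetra Ca2+ readout: after 30 min r.t. compound pre-incubation, HT-29 cells are challenged with trypsin (3.1 U/mL final), SLIGKV (8 μM), thrombin (1 U/mL) or UTP (0.6 μM). Cells were plated overnight in 1% FBS medium and dye-loaded with Calcium 5; an initial read checks compound agonism.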

In assay [3] the test system is carrageenan-induced paw edema. Nature of the assay: Rat carrageenan-induced paw edema model. The format is in vivo, Sprague Dawley rats. The note with it: for % inhibition of carrageenan induced paw edema: given before carrageenan challenge; for % inhibition of an established carrageenan induced rat paw edema: given 2 hours post carrageenan challenge. In a few lines:
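Rats received intraplantar 1% carrageenan (100 ul) under isoflurane. Test compound in 0.5% MC/0.1% SDS was given systemically at 5 mL/kg either 1-3 h before or 2 h after the challenge. Paw swelling was measured by plethysmometer at 2-6 h and expressed as mean % effect.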
Background: In the carrageenan paw model, swelling and tenderness develop within hours.

The values that follow come from US20190119282A1, “IMIDAZOPYRIDAZINES USEFUL AS INHIBITORS OF THE PAR-2 SIGNALING PATHWAY” (Vertex Pharmaceuticals Incorporated, priority 2013, published 2019).

Marks after values point to notes of the source that are not given here.

One may read the IC50 as the concentration that inhibits the measured activity by half.

In the case of `Cc1nc(C(=O)N2CCN(C(=O)c3cn4nc(-c5ccc(F)cc5)cc(C(C)(C)C)c4n3)C(C)(C)C2)n[nH]1` [Compound I-343, (8-(tert-butyl)-6-(4-fluorophenyl)imidazo[1,2-b]pyridazin-2-yl)(2,2-dimethyl-4-(5-methyl-1H-1,2,4-triazole-3-carbonyl)piperazin-1-yl)methanone], the entries for the “% inhibition of an established tryptase-induced nociception” value in assay [1] (dose 3 mg/kg), in assay [1] (dose 10 mg/kg) and in assay [1] (dose 30 mg/kg) were 12%, 23% and 49* %, respectively. Besides, the IC50 in assay [2] amounted to 0.8 nM. Besides, the “% inhibition of carrageenan induced paw edema” value is reported as 19* % in assay [3] (dose 0.3 mg/kg), 28* % in assay [3] (dose 3 mg/kg), 34* % in assay [3] (dose 10 mg/kg) and 50*** % in assay [3] (dose 30 mg/kg). The “% inhibition of an established carrageenan induced rat paw edema” value in assay [3] (dose 3 mg/kg) is reported as 32** %; in assay [3] (dose 10 mg/kg), 49** %; in assay [3] (dose 30 mg/kg) it was 58** %; in assay [3] (dose 60 mg/kg), 70*** %.
